ChEMBL document CHEMBL5104095, “Proteolysis targeting chimera (PROTAC) in drug discovery paradigm: Recent progress and future challenges” (Eur J Med Chem, 2021)

Assays:
[1] = target: T1, Protein cereblon/Bcl-2-like protein 1 (Homo sapiens, UniProt Q07817+Q96SW2); assay: PROTAC activity at CRBN/BCL-XL in human WI-38 cells assessed as induction of BCL-XL degradation incubated for 16 hrs by Western blot analysis relative to control; format: cell-based
Target sequence in this assay (Q07817 whole entry, looked up): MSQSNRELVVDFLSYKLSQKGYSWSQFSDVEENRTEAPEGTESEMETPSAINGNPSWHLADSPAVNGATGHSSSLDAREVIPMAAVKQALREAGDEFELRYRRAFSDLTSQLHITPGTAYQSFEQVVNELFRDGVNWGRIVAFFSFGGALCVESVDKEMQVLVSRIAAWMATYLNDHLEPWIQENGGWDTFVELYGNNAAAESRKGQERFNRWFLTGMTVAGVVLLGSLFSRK
Target sequence in this assay (Q96SW2 whole entry, looked up): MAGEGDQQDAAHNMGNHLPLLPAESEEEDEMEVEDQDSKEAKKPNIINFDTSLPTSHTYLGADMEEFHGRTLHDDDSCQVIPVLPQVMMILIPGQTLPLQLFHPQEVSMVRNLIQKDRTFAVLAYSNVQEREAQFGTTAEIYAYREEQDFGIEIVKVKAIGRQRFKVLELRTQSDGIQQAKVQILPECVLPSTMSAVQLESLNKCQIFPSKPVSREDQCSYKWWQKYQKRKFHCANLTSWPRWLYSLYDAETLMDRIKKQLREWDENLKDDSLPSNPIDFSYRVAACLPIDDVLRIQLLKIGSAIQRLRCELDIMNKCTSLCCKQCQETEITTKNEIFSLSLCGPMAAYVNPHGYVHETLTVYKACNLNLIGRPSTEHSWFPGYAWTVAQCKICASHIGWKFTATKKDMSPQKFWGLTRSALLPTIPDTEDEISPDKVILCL

[2] = target: T1, Protein cereblon/Bcl-2-like protein 1; assay: PROTAC activity at CRBN/BCL-XL in human WI-38 cells assessed as induction of BCL-XL degradation incubated for 16 hrs by Western blot analysis; format: cell-based
Target sequence in this assay (Q07817 whole entry): as the sequence (Q07817 whole entry, looked up) above
Target sequence in this assay (Q96SW2 whole entry): as the sequence (Q96SW2 whole entry, looked up) above

SMILES: CC1(C)CCC(c2ccccc2)=C(CN2CCN(c3ccc(C(=O)NS(=O)(=O)c4ccc(N[C@H](CCN5CCN(C(=O)CCCn6cc(COCCOCCNc7cccc8c7C(=O)N(C7CCC(=O)NC7=O)C8=O)nn6)CC5)CSc5ccccc5)c(S(=O)(=O)C(F)(F)F)c4)cc3)CC2)C1 (some centres not stated)
- Emax [1]: 96.2%
- EC50 [2]: 46 nM
